Earlier results in US11833161B2, “Compositions and methods for treatment of skin infections” (priority 2015, dated 2023).

Assays:
cutaneous warts = conditions: meta-analysis of trials, topical treatment of cutaneous warts; range in brackets
warts (verrucae) = conditions: one case, 2 large mosaic verruca; previous treatments by 2 podiatrists and a dermatologist over 14 months

Molecule | cure rate (cutaneous warts) | outcome of previous treatments in the difficult case (warts (verrucae))
O=C(O)c1ccccc1O [salicylic acid] | 52% (0-87%) | 
Vitamin A |  | unsuccessful
CN/C(=N/CCSCc1nc[nH]c1C)NC#N [cimetidine] |  | unsuccessful
